From US11660280B2, “Treatment of drug resistant gliomas” (OKLAHOMA MEDICAL RESEARCH FOUNDATION, priority 2017, dated 2023)

How the values were obtained:
[1] = system: LBP (lipopolysaccharide binding protein); experiment: LBP ELISA in tumor tissue and serum of F98 glioma-bearing rats; format: in vivo, rat
Excerpt: The inventor also discovered a potential biomarker, LBP (lipopolysaccharide binding protein), that is elevated in tumors of rat F98 glioma-bearing rats (assessed by ELISA), and in GBM human tissue samples (assessed by immunohistochemistry). […] The inventor used an ELISA kit for LBP to assess this biomarker as an efficacy marker in both G55-tumor-bearing mice in both tumor tissue and blood serum, either untreated or treated with TMZ, OKN-007 or TMZ +OKN-007.
Mice and Treatments. Animal studies were conducted in accordance to the OMRF IACUC (Institutional Animal Care and Use Committee) policies, which follow NIH guidelines. For the F98 rat glioma cell implantation model, F98 cells (10^5 in 10-μ1 volume) were intracerebrally implanted with a stereotaxic device (2 mm lateral and 2 mm anterior to the bregma, and at a 3 mm depth) in a total of 15 Fischer 344 rats (male 200-250 gm). The animals were divided into two groups once tumors reached 10-20 mm^3 in volume (as determined by MRI): OKN-007 treated (n=8) and untreated (UT) (n=7) groups. […] Once tumors reached 10-15 mm^3 (determined via MRI), mice were either treated daily with OKN-007 in the drinking water (150 mg/kg; 0.20% w/v for a 20 g mouse), or every 3 days with TMZ (30 mg/kg). […] Water bottles were weighed, and the amount of OKN-007 consumed per mouse was determined. […]

[2] = system: F98 tumors; experiment: RT-PCR of RNA isolated from F98 untreated and OKN-007-treated tumors; format: in vivo, rat; settings: OKN-007-treated vs untreated F98 tumors
Description: Mice and Treatments. Animal studies were conducted in accordance to the OMRF IACUC (Institutional Animal Care and Use Committee) policies, which follow NIH guidelines. For the F98 rat glioma cell implantation model, F98 cells (10^5 in 10-μ1 volume) were intracerebrally implanted with a stereotaxic device (2 mm lateral and 2 mm anterior to the bregma, and at a 3 mm depth) in a total of 15 Fischer 344 rats (male 200-250 gm). The animals were divided into two groups once tumors reached 10-20 mm^3 in volume (as determined by MRI): OKN-007 treated (n=8) and untreated (UT) (n=7) groups. Rats were treated until tumors reached 200-250 mm^3 in volume or for a total of 4-6 weeks. For the G55 GBM cell implantation model, two-month-old male nude mice (Hsd:Athymic Nude-Foxnlnu mice; Harlan Inc., Indianapolis, IN) were implanted intracerebrally with human G55 xenograft cells (1×10^6) per mL suspended in 4 μL in cell culture media of 1% agarose solution. Once tumors reached 10-15 mm^3 (determined via MRI), mice were either treated daily with OKN-007 in the drinking water (150 mg/kg; 0.20% w/v for a 20 g mouse), or every 3 days with TMZ (30 mg/kg). OKN-007 was dissolved in water and made fresh every 2 days. Water bottles were weighed, and the amount of OKN-007 consumed per mouse was determined. […] The average intake of OKN-007 was approximately 140-150 mg/kg/day/mouse. TMZ was dissolved in 5% DMSO and 5% solutol-15 in sterile saline and administered via gavage. Mice were treated until the tumors reached 100-150 mm^3 or for a total of 4-6 weeks. All groups were stratified to ensure that tumor sizes were similar before initiation of treatment.
RNA isolation and preparation. For the rat F98 glioma study, all rats were euthanized after the last MRI examination. The brain of each animal was removed, and snap frozen in liquid nitrogen, before storage in a −80° C. freezer. Total RNA from all tumor tissues from all treatment groups was purified with an RNeasy Mini Kit (Qiagen), and quantified by spectrophotometry (Nanodrop). cDNA was synthesized using SuperScript IV Reverse Transcriptase Kit (Invitrogen).

[3] = system: HIF-1α; experiment: ELISA protein level in human GBM cell lysates; format: cell-based
Description: (§1) ELISA for HIF-1a, MPG and MGMT. Protein expressions were assessed in all six glioma cell lines for all four groups of treatment (cell alone, cells with TMZ, cells with OKN, cells with combined OKN and TMZ). Cells were lysed before assaying. In brief, cells were washed by cold PBS gently, and then detached with trypsin, and collected by centrifugation at 1,000×g for 5 minutes. Then, cells were washed three times in cold PBS, then suspended in fresh lysis buffer. Lysates were centrifuged at 1,500×g for 10 minutes at 2-8° C. to remove cellular debris.
(§2) The assay is based on the sandwich ELISA principle. Each well of the supplied microtiter plate has been pre-coated with a target specific capture antibody. Standards or samples are added to the wells and the target antigen binds to the capture antibody. Unbound Standard or sample is washed away. A biotin-conjugated detection antibody is then added which binds to the captured antigen. Unbound detection antibody is washed away. An Avidin-Horseradish Peroxidase (HRP) conjugate is then added which binds to the biotin. Unbound Avidin-HRP conjugate is washed away. A TMB substrate is then added which reacts with the HRP enzyme resulting in color development. A sulfuric acid stop solution is added to terminate color development reaction and then the optical density (OD) of the well is measured at a wavelength of 450 nm±2 nm. The OD of an unknown sample can then be compared to an OD standard curve generated using known antigen concentrations in order to determine its antigen concentration.
(§3) The antigen concentration determined from ELISA was then normalized to the total protein concentration of each cell lysate in order to have comparison between groups. ELISA Kits for N-Methylpurine DNA Glycosylase (MPG) and for Hypoxia Inducible Factor 1 Alpha (HIF1a) were purchased from CLOUD-CLONE CORP.(CCC) and for Human MGMT from LifeSpan Biosciences, Inc.

[4] = system: MPG; experiment: ELISA protein level in human GBM cell lysates; format: cell-based
Description: as §1, §2, §3

SMILES: CC(C)(C)[N+]([O-])=Cc1ccc(S(=O)(=O)O)cc1S(=O)(=O)O [OKN-007, 2,4-disulfonyl phenyl tert-butyl nitrone]
- LBP levels in tumor tissues compared to untreated gliomas ([1]; F98 glioma bearing rats, p<0.0001): significant decrease in LBP levels
- serum levels of LBP compared to untreated tumor-bearing rats ([1]; F98 glioma-bearing rats, p<0.001): significantly lower
- RT-PCR fold change in gene expression ADAMTS1 ([2]; Down-regulated): 3.57 fold
- RT-PCR fold change in gene expression CD44 ([2]; Down-regulated): 3.03 fold
- RT-PCR fold change in gene expression CDH3 ([2]; Down-regulated): 3.70 fold
- RT-PCR fold change in gene expression COL1A1 ([2]; Down-regulated): 2.27 fold
- RT-PCR fold change in gene expression COL2A1 ([2]; Down-regulated): 2.33 fold
- RT-PCR fold change in gene expression COL3A1 ([2]; Down-regulated): 3.13 fold
- RT-PCR fold change in gene expression COL4A1 ([2]; Down-regulated): 2.94 fold
- RT-PCR fold change in gene expression COL4A2 ([2]; Down-regulated): 2.63 fold
- RT-PCR fold change in gene expression COL5A1 ([2]; Down-regulated): 3.33 fold
- RT-PCR fold change in gene expression COL6A1 ([2]; Down-regulated): 2.94 fold
- RT-PCR fold change in gene expression COL8A1 ([2]; Down-regulated): 2.33 fold
- RT-PCR fold change in gene expression CTGF ([2]; Down-regulated): 2.63 fold
- RT-PCR fold change in gene expression ECM1 ([2]; Down-regulated): 2.86 fold
- RT-PCR fold change in gene expression EMILIN1 ([2]; Down-regulated): 2.27 fold
- RT-PCR fold change in gene expression FN1 ([2]; Down-regulated): 2.63 fold
- RT-PCR fold change in gene expression ITAD ([2]; Down-regulated): 2.38 fold
- RT-PCR fold change in gene expression ITGA2 ([2]; Down-regulated): 3.7 fold
- RT-PCR fold change in gene expression ITGB3 ([2]; Down-regulated): 2.13 fold
- RT-PCR fold change in gene expression ITGB4 ([2]; Down-regulated): 3.70 fold
- RT-PCR fold change in gene expression LAMC1 ([2]; Down-regulated): 2.33 fold
- RT-PCR fold change in gene expression MMP1 A ([2]; Down-regulated): 4.17 fold
- RT-PCR fold change in gene expression MMP2 ([2]; Down-regulated): 2.86 fold
- RT-PCR fold change in gene expression MMP3 ([2]; Down-regulated): 3.85 fold
- RT-PCR fold change in gene expression MMP7 ([2]; Down-regulated): 2.86 fold
- RT-PCR fold change in gene expression MMP8 ([2]; Down-regulated): 3.85 fold
- RT-PCR fold change in gene expression MMP9 ([2]; Down-regulated): 7.14 fold
- RT-PCR fold change in gene expression MMP12 ([2]; Down-regulated): 16.67 fold
- RT-PCR fold change in gene expression MMP13 ([2]; Down-regulated): 50.00 fold
- RT-PCR fold change in gene expression MMP14 ([2]; Down-regulated): 2.86 fold
- RT-PCR fold change in gene expression POSTN ([2]; Down-regulated): 33.33 fold
- RT-PCR fold change in gene expression RGDC ([2]; Down-regulated): 3.45 fold
- RT-PCR fold change in gene expression SELE ([2]; Down-regulated): 2.86 fold
- RT-PCR fold change in gene expression SELL ([2]; Down-regulated): 2.13 fold
- RT-PCR fold change in gene expression SELP ([2]; Down-regulated): 2.13 fold
- RT-PCR fold change in gene expression SPP1 ([2]; Down-regulated): 8.33 fold
- RT-PCR fold change in gene expression TGFBI ([2]; Down-regulated): 2.22 fold
- RT-PCR fold change in gene expression THBS2 ([2]; Down-regulated): 3.7 fold
- RT-PCR fold change in gene expression TIMP1 ([2]; Down-regulated): 3.45 fold
- RT-PCR fold change in gene expression CDH4 ([2]; Up-regulated): 4.06 fold
- RT-PCR fold change in gene expression CNTN1 ([2]; Up-regulated): 15.03 fold
- RT-PCR fold change in gene expression HAPLN1 ([2]; Up-regulated): 3.1 fold
- RT-PCR fold change in gene expression MMP16 ([2]; Up-regulated): 4.72 fold
- RT-PCR fold change in gene expression NCAM2 ([2]; Up-regulated): 11.63 fold
- RT-PCR fold change in gene expression SGCE ([2]; Up-regulated): 8.06 fold
- RT-PCR fold change in gene expression SPOC1 ([2]; Up-regulated): 11.08 fold
- RT-PCR fold change in gene expression SYT1 ([2]; Up-regulated): 19.03 fold
- RT-PCR fold change in gene expression VTN ([2]; Up-regulated): 3.03 fold
- ELISA protein level HIF-1α ([3]; G55 cells, UT 0.14): 0.19 ng/mg cell lysate
- ELISA protein level HIF-1α ([3]; LN18 cells, UT 0 76): 0.92 ng/mg cell lysate
- ELISA protein level HIF-1α ([3]; LN229 cells, UT 0.68): 0.66 ng/mg cell lysate
- ELISA protein level HIF-1α ([3]; T98 cells, UT 0.42): 0.58 ng/mg cell lysate
- ELISA protein level HIF-1α ([3]; U138 cells, UT 0.40): 0.33 ng/mg cell lysate
- ELISA protein level HIF-1α ([3]; U251 cells, UT 0.30): 0.61 ng/mg cell lysate
- ELISA protein level MPG ([4]; G55 cells, UT 1.15): 1.41 ng/mg cell lysate
- ELISA protein level MPG ([4]; LN18 cells, UT 2.18): 2.38 ng/mg cell lysate
- ELISA protein level MPG ([4]; LN229 cells, UT 2.34): 1.88 ng/mg cell lysate
- ELISA protein level MPG ([4]; T98 cells, UT 3.04): 3.61 ng/mg cell lysate
- ELISA protein level MPG ([4]; U138 cells, UT 1.30): 1.22 ng/mg cell lysate
- ELISA protein level MPG ([4]; U251 cells, UT 2.70): 2.77 ng/mg cell lysate
